Experimental data as given in patent US11604184B2, “Juvenile atopic dermatitis models” (Laboratoires Expanscience, priority 2016, dated 2023).

System: S. aureus biofilm
Assay: Model for studying S. aureus biofilm on reconstructed epidermises (scanning electron microscopy)
Format: cell-based, Staphylococcus aureus (MRSA; ATCC 33591)
Details: 24 hours after colonization
Description: The test products (P1, P5 or P8) or 5% xylitol (positive control for inhibition of biofilm formation) were applied topically to reconstructed epidermises at a rate of 30 μL/epidermis, after undergoing slight surface abrasion.
After incubation overnight, the products were removed by rinsing and a 2·10^6 cfu inoculum of Staphylococcus aureus (methicillin-resistant S. aureus, MRSA; ATCC 33591) was applied to the surface of the reconstructed epidermises.
Biofilm formation and the effect of the product thereon were observed visually by scanning electron microscopy (SEM) 6 and 24 hours after colonization.

SMILES: OC[C@@H](O)[C@H](O)[C@@H](O)CO [xylitol]
- S. aureus biofilm formation on the surface of epidermises, observed by SEM (in words): did not produce biofilm
